These results are taken from article PMC7450057, “Enhancing intracellular accumulation and target engagement of PROTACs with reversible covalent chemistry” (Nature Communications, 2020).

Values joined by “and” are separate entries in the source; they are usually repeats but may differ in a detail not shown here. Equal values may be shown once.

The term IC50 denotes the concentration that inhibits the measured activity by half. Read a low IC50 as higher potency.

One data set addresses BTK (Mus musculus, UniProt P35991). The data set is described as follows: BTK degradation in mouse B-cell lymphoma cell line derived from Eu-Myc mice. As to conditions: for BTK quantification (anti-BTK / anti-β-actin): Supplementary Figure 10, replicates, DMSO about 100. The format is cell-based. On the set-up: endogenous in cells; host or cells: B cell lymphoma cell line derived from Eu-Myc mice. How it is done:
MOLM-14 cell line was obtained from Dr. Conneely at Baylor College of Medicine, and the Mino cells were purchased from the American Type Culture Collection (ATCC, Cat. No. CRL-3000). Both cell lines were cultured in RPMI 1640 medium (Thermo Fisher Scientific, Cat. No. MT10040CV) supplemented with 10% fetal bovine serum (GE Healthcare, Cat. No. SH30071.03) and 1% Pen/Strep (Thermo Fisher Scientific, Cat. No. 15140163). The wild-type and C481S BTK XLA cell lines were gifts from Dr. Woyach at The Ohio State University and were cultured in RPMI 1640 medium with 15% fetal bovine serum, 1% Pen/Strep, and 1.0 µg/ml puromycin (Thermo Fisher Scientific, Cat. No. A1113803). HEK 293T/17 cells were purchased from ATCC (Cat. No. CRL-11268) were maintained in DMEM (Thermo Fisher Scientific, Cat. No. MT10013CV) with 10% fetal bovine serum and 1% Pen-Strep. The B cell lymphoma cell line derived from Eu-Myc mice was a gift from Dr. Yulin Li at Houston Methodist Research Institute and cultured in RPMI 1640 medium supplemented with 15% (v/v) fetal bovine serum (FBS), 100 U/mL penicillin, 100 μg/mL streptomycin, and 0.05 mM beta-mercaptoethanol and puromycin (1 μg/mL). Cells were grown at 37 °C with 5% CO2.
The collected cells and spleen tissues were lysed in RIPA lysis buffer (50 mM Tris-HCl, pH 7.4, 150 mM NaCl, 1% NP-40, 0.5% sodium deoxycholate, 0.1% SDS) supplemented with Halt™ Protease and Phosphatase Inhibitor Cocktail (Thermo Fisher Scientific, Cat. No. PI78440) immediately before use. Lysates were centrifuged at 15,000 × g for 10 min at 4 °C and the supernatant was quantified for total protein concentration using the Pierce BCA Protein Assay (Thermo Fisher Scientific, Cat. No. 23225). Thirty micrograms of protein were loaded onto sodium dodecyl sulfate−polyacrylamide gel for electrophoresis (Bio-Rad) and transferred onto PVDF membranes (Millipore, Cat. No. IPVH00010). […] Imaging was performed using the ECL Prime chemiluminescent western blot detection reagents (GE Healthcare, Cat. No. RPN2232) by visualization of the blots to X-Ray film or with an Imager (Kindle Biosciences, Cat. No. D1001). All western blots were subsequently processed and quantified with Imager software. Protein level was normalized to β-actin or GAPDH loading controls.

The subject of the next data set is Mino. Put plainly: IC50 in MCL cell lines (Supplementary Table 2), Mino. As to conditions: for Cell Viability (%): Mino cells, replicate wells; for IC50: Mino, triplicates.
The test system of a further data set is Jeko-1. Put plainly: IC50 in MCL cell lines (Supplementary Table 2), Jeko-1. As to conditions: for IC50: Jeko-1, triplicates; for Cell Viability (%): Jeko-1 cells, replicate wells.

Chain of BTK (P35991 whole entry): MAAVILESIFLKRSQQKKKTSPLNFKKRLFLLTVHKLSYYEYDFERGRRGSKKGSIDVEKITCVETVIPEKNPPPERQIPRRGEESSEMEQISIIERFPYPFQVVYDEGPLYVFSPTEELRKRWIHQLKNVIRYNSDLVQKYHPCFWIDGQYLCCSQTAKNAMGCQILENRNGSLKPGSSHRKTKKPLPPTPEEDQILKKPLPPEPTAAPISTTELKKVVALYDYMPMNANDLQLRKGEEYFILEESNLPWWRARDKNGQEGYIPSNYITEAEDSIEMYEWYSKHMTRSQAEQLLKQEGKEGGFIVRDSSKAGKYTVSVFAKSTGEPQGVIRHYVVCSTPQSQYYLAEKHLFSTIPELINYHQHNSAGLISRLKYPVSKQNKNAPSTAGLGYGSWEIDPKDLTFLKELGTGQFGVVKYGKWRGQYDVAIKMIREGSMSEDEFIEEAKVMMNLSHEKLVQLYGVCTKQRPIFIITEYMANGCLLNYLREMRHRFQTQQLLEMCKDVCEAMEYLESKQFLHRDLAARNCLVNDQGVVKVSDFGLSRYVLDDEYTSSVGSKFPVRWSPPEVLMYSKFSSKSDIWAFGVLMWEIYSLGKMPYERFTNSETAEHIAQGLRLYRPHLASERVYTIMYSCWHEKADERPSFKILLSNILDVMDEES

In the case of `CN(CCCNC(=O)CNc1cccc2c1C(=O)N(C1CCC(=O)NC1=O)C2=O)CCCC(=O)N1CCCC(n2nc(-c3ccc(Oc4ccccc4)cc3)c3c(N)ncnc32)C1` (stereo not shown) [RNC-1], the “BTK quantification (anti-BTK / anti-β-actin)” value on BTK (8 nM) was 97.1575 and 95.3789; on BTK (40 nM), 69.0679 and 73.2452; on BTK (200 nM), 33.5661 and 27.9942.
For the compound `CC(C)(C)C=C(C#N)C(=O)N1CCCC(n2nc(-c3ccc(Oc4ccccc4)cc3)c3c(N)ncnc32)C1` (stereo not shown) [RC-Ctrl], the “Cell Viability (%)” value in the data set on Mino (1.25E-06 M) was 64.9212% and 67.7956% and 65.2142%; in the data set on Mino (1.56E-07 M) it was 72.1676% and 75.0045% and 70.0395%; with Mino (2.50E-06 M), 62.0161% and 61.5033% and 61.0381%; with Mino (3.13E-07 M) it was 62.4012% and 64.8258% and 70.1741%; in the data set with Mino (5.00E-06 M), 55.6234% and 57.3306% and 56.4139%; with Mino (6.25E-07 M), 64.669% and 69.1433% and 66.0679%. Also, the “Cell Viability (%)” value is 69.6595% and 74.2003% and 68.2948% in the data set with Mino (7.81E-08 M); 31.3102% and 33.1774% and 45.3843% in the data set on Jeko-1 (1.25E-06 M); 69.2456% and 61.0172% and 73.2882% with Jeko-1 (1.56E-07 M); 11.5927% and 9.314% and 11.5138% in the data set on Jeko-1 (2.50E-06 M); 58.8318% and 42.4713% and 68.6832% in the data set with Jeko-1 (3.13E-07 M); 5.458% and 5.865% and 4.45% with Jeko-1 (5.00E-06 M). The “Cell Viability (%)” value with Jeko-1 (6.25E-07 M) is 52.1031% and 47.1602% and 45.3596%; in the data set on Jeko-1 (7.81E-08 M), 53.9062% and 67.1539% and 84.5751%. Also, the IC50 in the data set with Mino is above 5 µM; in the data set on Jeko-1, 0.6 µM.
Take `CN(CCCNC(=O)CNc1cccc2c1C(=O)N(C1CCC(=O)NC1=O)C2=O)C(C)(C)C=C(C#N)C(=O)N1CCC[C@@H](n2nc(-c3ccc(Oc4ccccc4)cc3)c3c(N)ncnc32)C1` (stereo partly shown) [RC-1]: the “Cell Viability (%)” value was 39.6721% and 39.1711% and 38.89% in the data set with Mino (1.25E-06 M); 67.6678% and 68.2351% and 62.6329% with Mino (1.56E-07 M); 36.14% and 35.6851% and 33.7887% in the data set with Mino (2.50E-06 M); 53.7594% and 53.6077% and 49.7111% in the data set on Mino (3.13E-07 M); 32.4512% and 31.601% and 30.272% with Mino (5.00E-06 M); 49.0909% and 46.392% and 45.7071% with Mino (6.25E-07 M). Besides, the “Cell Viability (%)” value in the data set with Mino (7.81E-08 M) is 89.7818% and 79.7053% and 78.5229%; in the data set on Jeko-1 (1.25E-06 M), 8.1% and 9.79% and 4.911%; in the data set with Jeko-1 (1.56E-07 M), 59.0193% and 84.765% and 42.1211%; with Jeko-1 (2.50E-06 M) it was 5.234% and 3.584% and 4.277%; in the data set with Jeko-1 (3.13E-07 M), 35.9177% and 48.9386% and 32.3116%; in the data set on Jeko-1 (5.00E-06 M), 6.285% and 4.711% and 5.303%. Also, the “Cell Viability (%)” value was 26.3007% and 22.6601% and 16.326% in the data set on Jeko-1 (6.25E-07 M); 58.1018% and 72.8615% and 48.2775% with Jeko-1 (7.81E-08 M). Also, the IC50 with Mino worked out at 0.4 µM; in the data set with Jeko-1 it was 0.2 µM. The “BTK quantification (anti-BTK / anti-β-actin)” value on BTK (8 nM) was 63.6968 and 56.9893; at BTK (40 nM) it was 41.0784 and 35.9122; at BTK (200 nM), 29.8182 and 40.565. Besides, the “maximum BTK degradation” value at BTK (dosed up to 25 µM, 24 h) was 30–40%.
Turning to `CN1C(=O)CCC(N2C(=O)c3cccc(NCC(=O)NCCCN(C)C(C)(C)C=C(C#N)C(=O)N4CCCC(n5nc(-c6ccc(Oc7ccccc7)cc6)c6c(N)ncnc65)C4)c3C2=O)C1=O` (stereo not shown) [RC-1-Me], the “Cell Viability (%)” value in the data set with Mino (1.25E-06 M) is 62.8357% and 58.5114% and 61.2528%; in the data set on Mino (1.56E-07 M), 87.7372% and 87.5805% and 85.7829%; in the data set on Mino (2.50E-06 M), 55.4376% and 54.2347% and 53.6197%; in the data set on Mino (3.13E-07 M) it was 79.9575% and 76.1954% and 74.7404%; in the data set with Mino (5.00E-06 M), 43.6522% and 45.138% and 46.9951%; in the data set with Mino (6.25E-07 M) it was 66.0951% and 69.0683% and 66.9419%. In addition, the “Cell Viability (%)” value in the data set on Mino (7.81E-08 M) is 88.6147% and 85.2411% and 92.7295%; in the data set with Jeko-1 (1.25E-06 M), 36.268% and 32.7063% and 31.5519%; with Jeko-1 (1.56E-07 M), 68.2022% and 62.2702% and 73.2784%; in the data set with Jeko-1 (2.50E-06 M), 5.54% and 14.7844% and 6.721%; with Jeko-1 (3.13E-07 M), 71.0782% and 71.3298% and 71.3347%; in the data set on Jeko-1 (5.00E-06 M) it was 4.5335% and 3.7442% and 3.927%. Also, the “Cell Viability (%)” value in the data set on Jeko-1 (6.25E-07 M) is 49.1754% and 57.0313% and 33.3624%; with Jeko-1 (7.81E-08 M), 77.062% and 93.1685% and 69.7463%. The figures for the IC50 in the data set with Mino and with Jeko-1 were 3.3 µM and 0.6 µM, respectively.
`CN(CC=CC(=O)N1CCCC(n2nc(-c3ccc(Oc4ccccc4)cc3)c3c(N)ncnc32)C1)CCCNC(=O)CNc1cccc2c1C(=O)N(C1CCC(=O)NC1=O)C2=O` (stereo not shown) [IRC-1]: the “BTK quantification (anti-BTK / anti-β-actin)” value on BTK (8 nM) is 93.1337 and 89.8918; at BTK (40 nM), 73.5656 and 73.5943; on BTK (200 nM) it was 64.1549 and 63.4726.
